Laboratory results from US7264795B2, “Sunscreen composition” (Merck Patent Gesellschaft, priority 2001, dated 2007).

Tests used:
[1] = Epidermal uptake of UV filters by human epidermis (Franz diffusion cell); assay type: in vitro ADME
Procedure: The goal of this study is to determine and compare both the release of OMC from two different formulations through human epidermal membranes and the epidermal uptake of OMC.
Human female abdominal skin is used to heat-separate the epidermis from the dermis. The epidermal membranes thus obtained are mounted onto a Franz diffusion cell. The receptor cell contains PBS and 4% (w/v) bovine serum albumin, resulting in a pH of 7.4. The temperature is set to 35° C. Each of the two formulations is applied to 3 cells, non-occluded, with a finite dose concentration of 5 mg/cm^2 (572 μg OMC/cell). […] The duration of examination is 6 hours, 200 μl of the receptor phase is removed at specific points of time and analyzed by HPLC. To analyze the epidermal uptake, the remaining formulation is wiped from the surface of the epidermis with alcohol-soaked tissue and the skin is stripped once with adhesive tape, which is then discarded. A circular punch is used to remove a constant area of epidermis exposed to the formulations. After extraction, OMC concentrations are analyzed by HPLC.

[2] = Differential stripping of the stratum corneum (tape stripping with UV/VIS spectroscopy); assay type: in vitro ADME, porcine
Text: The goal of this study was to determine and compare the distribution of OMC in the stratum corneum of two different formulations as applied to porcine skin, which serves as a model for in vivo human skin applications. The method used has been established (Weigmann H-J, Lademann J, Meffert H, Schaefer H, Sterry W: Determination of the horny layer profile by tape stripping in combination with optical spectroscopy in the visible range as a prerequisite to quantify percutaneous absorption. Skin Pharmacol Appl Skin Physiol, 12:34-45 (1999)) and is described below. This method is based on conventional stripping procedures combined with UV/VIS spectroscopy to determine both the substance, to be analyzed, and, in parallel, the weight of the comeocytes. This since it is possible to obtain the complete stratum corneum with this stripping procedure, the strips thus can be shown as a horny layer profile.
Porcine ear skin is used due to its availability and well-known similarity to human skin. […] Two formulations are applied to an area of 20 cm^2 with a concentration of 2 mg/cm^2 (200 μg OMC/cm^2) and exposed for one hour. […] Afterwards, topical application and stripping was carried out using a standard procedure (The emulsion is applied with a syringe and evenly distributed with a gloved finger. After pressure application, all strips were removed from the marked area). The stripping is repeated as long as the spectral photometer has a transmission of 99.8% compared to the original tape strip as reference.
After evaluation of the amount of stratum corneum photometrically at 900 nm, the strips are extracted with methanol, centrifuged and decanted. Amounts of OMC concentrations are calculated from the ratio peak area of the OMC to an internal OMC calibration curve. The detection limit for OMC is found to be 1 μg/ml±5%. The experiments are carried out in duplicate.
Non-particulate substances lying in the furrows are distributed evenly due to the applied pressure—this releases the substances from the furrows, while particulate substances often remain. […]

[3] = Comparative release through an inert lipophilic membrane (Franz diffusion cell); assay type: in vitro ADME; settings: after 6 hours, finite dose 5 mg/cm^2 (572 μg OMC/cell)
Text: The goal of this study is to determine and compare the release of OMC from two different formulations through an inert lipophilic membrane which serves as a model (Jiang R, Benson H A E, Cross S E, Roberts M S. In vitro human epidermal and polyethylene membrane penetration and retention of sunscreen benzophenone-3 from a range of solvents. Pharm. Res., 15: 1863-1886 (1998)) for in vitro human skin applications. (Jiang R, Robert M S, Prankerd R J, Benson H A E. Percutaneous absorption of sunscreen agents from liquid paraffin: self-association of octyl salicylate and effects on skin flux. J. Pharm. Sci., 86: 791-796 (1997); Shah et al: In vitro release from corticosteorid ointments. J. Pham. Sci., 84(9): 1139-1140 (1995);).
Two formulations are prepared, one with free, the other with encapsulated OMC. Both contained the same amount of OMC (see Table 3).
Tuffryn® membranes (200 nm in pore size) are soaked for 30 minutes in isopropyl myristate and blotted dry with tissue paper prior to use. […]
Analysis is by HPLC, OMC concentrations are calculated from the ratio peak area of the OMC to an internal standard and calibration curve.

Epidermal uptake of OMC per mg of epidermal tissue ([1]; after 6 hours of exposure, finite dose 5 mg/cm^2, 8.8% OMC): 3.3 μg/mg tissue
Epidermal absorption compared to Eusolex UV-Pearls ([1]; heat-separated human epidermis, 6 hours): 3 fold
Share of the stratum corneum (SC) down to which OMC is found ([2]; 10% OMC formulation, 2 mg/cm^2, exposed one hour, 100% SC = 20 μm): 75 % of the SC
Maximum depth in the SC where OMC can be detected ([2]; 10% OMC formulation, 2 mg/cm^2, exposed one hour, horny layer about 20 μm): ≤ 15 μm
OMC amount in the deepest strip ([2]; strip at 15 μm depth (75% of the SC)): 1 μg/cm^2
OMC reaching the receptor cell as share of the applied amount [3]: 12.5%
OMC reaching the receptor cell ([3]; 8.8% OMC, n=3): 72 µg
Compound: CCCCC(CC)COC(=O)C=Cc1ccc(OC)cc1 (centres unmarked) [Free OMC, octyl methoxycinnamate]
UV filter penetrating the epidermis into the receptor phase ([1]; 6 hours, finite dose 5 mg/cm^2 (572 μg OMC/cell), 8.8% OMC): no significant amount of UV filter penetrating the epidermis
